Data set [1] has as its system rosette forming cells (RFC) in the spleen and thymus. Nature of the data set: Activity for potentiating immune response in dd-mice (RFC number after SRBC sensitization in CY-treated mice). Type of data set: in vivo, male dd-strain mice. As to the method:
(I) Activity for potentiating immune response in dd-mice
As test animals, male dd-strain mice (8 week old) were used by dividing them into groups of 6 members. Each mouse was orally administered once a day with cyclophosphamide (CY) at a dose of 20 mg/kg 1 and 0 day before the sensitization. The sensitization (day 0) was made by the intravenous injection of the antigen; 1×10^8 sheep red blood cells (SRBC). Each mouse was orally administered with test compounds (day 0-4). Five days after the sensitization, the number of rosette forming cells (RFC) in the spleen and thymus was measured in a usual manner.

The next data set is described as follows: Acute toxicity. The settings on record: mouse, in vivo, male dd-strain mice. The protocol: Acute toxicity of the test compound was determined using male dd-strain mice (8 week old) as test animals. The test compound was administered orally or intraperitoneally.
The test system of data set [2] is rosette forming cells (RFC) in the spleen and thymus. Nature of the data set: Activity for suppressing immune response in BALB/c mice (RFC number after SRBC sensitization). The format is in vivo, female BALB/c-strain mice. The settings on record: 30 mg/kg p.o.; for RFC/organ Spleen: day 0 and 1; for RFC/organ Thymus: day 0 and 1, ** P < 0.01 vs. control. The protocol: (II) Activity for suppressing immune response in BALB/c mice
As test animals, female BALB/c-strain mice (6 week old) were used by dividing them into groups of 6 members.
The sensitization (day 0) was made by the intraperitoneal injection the antigen; 5×10^8 sheep red blood cells (SRBC). Each mouse was orally administered with test compounds at day 0 and 1. Four days after the sensitization, the number of rosette forming cells (RFC) in the spleen and thymus was measured in a usual manner.

The mark [3] stands for this setting: CY alone, 20 mg/kg p.o. once a day, 1 and 0 day before sensitization, dd-mice.
The mark [4] stands for this setting: CY (20 mg/kg) + test compound 1 mg/kg p.o., day 0-4, * P < 0.05 vs. CY treatment.
The mark [5] stands for this setting: CY (20 mg/kg) + test compound 1 mg/kg p.o., day 0-4, ** P < 0.01 vs. CY treatment.
Setting [6] is: CY (20 mg/kg) + test compound 10 mg/kg p.o., day 0-4.
[7] abbreviates: CY (20 mg/kg) + test compound 10 mg/kg p.o., day 0-4, * P < 0.05 vs. CY treatment.

The values that follow come from US4244952A, “Imidazo[2',1':2,3]-thiazolo[5,4-c]pyridines and composition thereof for treating immune diseases” (Yoshitomi Pharmaceutical Industries, Ltd., priority 1978, dated 1981).

On to `O=P1(N(CCCl)CCCl)NCCCO1` (stereo not shown) [CY, cyclophosphamide, reference compound], for which, in data set [1] (setting [3]), the “RFC/organ Spleen” value is 101 × 10^4 and the “RFC/organ Thymus” value was 0.44 × 10^4. The “number of RFC per spleen and thymus” value in data set [1] (group treated with CY alone) is reported as “reduced significantly”.

By LD50 is commonly meant the dose at which mortality reaches 50%. The low end stands for a more toxic substance, the high end for a less toxic substance. In the case of `CCOC(=O)N1CCc2c(sc3nc(-c4ccc([N+](=O)[O-])cc4)cn23)C1` [Compound A, 7-ethoxycarbonyl-2-(4-nitrophenyl)-5,6,7,8-tetrahydroimidazo[2',1':2,3]thiazolo[5,4-c]pyridine], the median lethal dose (LD50) in the data set “Acute toxicity” (ip) was 600 mg/kg; in “Acute toxicity” (po) it was 1000 mg/kg. The “RFC/organ Spleen” value is 174 × 10^4 in data set [2], 169 × 10^4 in data set [1] (setting [5]) and 220 × 10^4 in data set [1] (setting [6]). Moreover, the “RFC/organ Thymus” value in data set [2] was 0.00 × 10^4; in data set [1] (setting [4]) it was 3.33 × 10^4; in data set [1] (setting [7]), 3.11 × 10^4.

On to `O=[N+]([O-])c1ccc(CN2CCc3c(sc4nccn34)C2)cc1` [Compound B, 7-(4-nitrobenzyl)-5,6,7,8-tetrahydroimidazo[2',1':2,3]thiazolo-[5,4-c]pyridine], for which the 50% lethal dose (LD50) in the data set “Acute toxicity” (ip) was 600 to 1000 mg/kg; in the data set “Acute toxicity” (po) it was 600 mg/kg. Moreover, the “RFC/organ Spleen” value is given as 104 × 10^4 in data set [2], 291 × 10^4 in data set [1] (setting [5]) and 135 × 10^4 in data set [1] (setting [6]). The figures for the “RFC/organ Thymus” value in data set [2], in data set [1] (setting [4]) and in data set [1] (setting [7]) were 0.14 × 10^4, 2.00 × 10^4 and 1.56 × 10^4, respectively.
